Test results taken from US11149019B2, “Phenylpyridine derivative and pharmaceutical composition comprising the same” (Daewoong Pharmaceutical Co., Ltd., priority 2017, dated 2021).

Tests used:
ITK = biological target: T1, ITK (Homo sapiens, UniProt Q08881); experiment: ADP-Glo + ITK Kinase enzyme system kit, inhibitory activity against ITK; format: biochemical; details: ITK enzyme 0.4 ng/ul, ATP final concentration of 25 ul, 30° C. for 1 hour, luminescence, duplicate
T1 construct: purchased Promega Corporation
T1 sequence (Q08881 1-620): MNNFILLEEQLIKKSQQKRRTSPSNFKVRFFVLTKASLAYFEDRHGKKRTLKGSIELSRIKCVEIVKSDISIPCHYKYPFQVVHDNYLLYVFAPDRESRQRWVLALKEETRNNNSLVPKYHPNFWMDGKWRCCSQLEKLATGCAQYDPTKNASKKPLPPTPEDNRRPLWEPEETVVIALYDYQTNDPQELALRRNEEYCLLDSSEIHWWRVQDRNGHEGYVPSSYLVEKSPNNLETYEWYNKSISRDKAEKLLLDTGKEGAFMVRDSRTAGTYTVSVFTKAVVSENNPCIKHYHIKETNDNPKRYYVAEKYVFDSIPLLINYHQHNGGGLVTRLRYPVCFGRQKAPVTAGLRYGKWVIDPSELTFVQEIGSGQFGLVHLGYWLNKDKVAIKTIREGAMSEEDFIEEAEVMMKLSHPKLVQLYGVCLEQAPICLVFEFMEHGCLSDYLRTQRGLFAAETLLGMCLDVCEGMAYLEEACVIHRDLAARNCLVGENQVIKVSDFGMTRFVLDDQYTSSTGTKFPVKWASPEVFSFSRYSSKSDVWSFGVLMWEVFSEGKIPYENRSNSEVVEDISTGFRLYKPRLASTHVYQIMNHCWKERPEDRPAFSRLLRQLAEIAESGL
Method: (§1) Inhibitory activities against BTK and ITK were measured for the compounds prepared in the above Examples as follows.
The inhibitory activity against ITK was evaluated using ‘ADP-Glo™+ITK Kinase enzyme system’ kit (Promega Corporation). In a white 96-well plate, 10 ul of ITK enzyme prepared so as to have a final concentration of 0.4 ng/ul was mixed with 5 ul of compounds having a final concentration of 1 uM in the case of evaluating a single concentration of compound and a concentration of 1000, 300, 100, 30, 10, 3, 1, 0.3, 0.1 and 0.03 nM in the case of IC50 evaluation, and then reacted at room temperature for 15 minutes. To the plate on which reactions were completed, 5 ul of substrate and 5 ul of ATP prepared so as to have a final concentration of […] added and then allowed to react at 30° C. for 1 hour. All wells of the plate were treated with 25 ul of ADP-Glo™ reagent and then allowed to react at 30° C. for 40 minutes. After that, all wells were treated with 50 ul of kinase detection buffer, and then allowed to react at 30° C. for 30 minutes under light shielding conditions. For the plate on which all reactions were completed, luminescence was measured and the results were calculated. Evaluation was carried out in duplicate, and negative control and positive control were calculated depending on whether or not the enzyme was added without treatment of the compound. The IC50 was calculated based on the calculated values.

BTK = biological target: T2, BTK (Homo sapiens, UniProt Q06187); experiment: ADP-Glo + BTK Kinase enzyme system kit, inhibitory activity against BTK; format: biochemical; details: BTK enzyme 1 ng/ul, ATP 10 μM, 30° C. for 1 hour, luminescence, duplicate
T2 construct: purchased Promega Corporation
Method: as §1
The inhibitory activities against BTK were evaluated using ‘ADP-Glo™+BTK Kinase enzyme system’ kit (Promega Corporation). In a white 96-well plate, 10 ul of BTK enzyme prepared so as to have a final concentration of 1 ng/ul was mixed with 5 μl of compounds having a final concentration of […] the case of evaluating a single concentration of compound and a concentration of 1000, 300, 100, 30, 10, 3, 1, 0.3, 0.1 and 0.03 nM in the case of IC50 evaluation, and then reacted at room temperature for 15 minutes. 5 ul of substrate and 5 ul of ATP prepared so as to have a final concentration of 10 μM were added to the plate on which reactions were completed, and then allowed to react at 30° C. for 1 hour. All wells of the plate were treated with 25 ul of ADP-Glo™ reagent and allowed to react at 30° C. for 40 minutes. After that, all wells were treated with 50 ul of kinase detection buffer, and then reacted at 30° C. for 30 minutes under light shielding conditions. For the plate on which all reactions were completed, luminescence was measured and the results were calculated. Evaluation was carried out in duplicate, and negative control and positive control were calculated depending on whether or not the enzyme was added without treatment of the compound. The IC50 was calculated based on the calculated values.

T2 sequence (Q06187 whole entry): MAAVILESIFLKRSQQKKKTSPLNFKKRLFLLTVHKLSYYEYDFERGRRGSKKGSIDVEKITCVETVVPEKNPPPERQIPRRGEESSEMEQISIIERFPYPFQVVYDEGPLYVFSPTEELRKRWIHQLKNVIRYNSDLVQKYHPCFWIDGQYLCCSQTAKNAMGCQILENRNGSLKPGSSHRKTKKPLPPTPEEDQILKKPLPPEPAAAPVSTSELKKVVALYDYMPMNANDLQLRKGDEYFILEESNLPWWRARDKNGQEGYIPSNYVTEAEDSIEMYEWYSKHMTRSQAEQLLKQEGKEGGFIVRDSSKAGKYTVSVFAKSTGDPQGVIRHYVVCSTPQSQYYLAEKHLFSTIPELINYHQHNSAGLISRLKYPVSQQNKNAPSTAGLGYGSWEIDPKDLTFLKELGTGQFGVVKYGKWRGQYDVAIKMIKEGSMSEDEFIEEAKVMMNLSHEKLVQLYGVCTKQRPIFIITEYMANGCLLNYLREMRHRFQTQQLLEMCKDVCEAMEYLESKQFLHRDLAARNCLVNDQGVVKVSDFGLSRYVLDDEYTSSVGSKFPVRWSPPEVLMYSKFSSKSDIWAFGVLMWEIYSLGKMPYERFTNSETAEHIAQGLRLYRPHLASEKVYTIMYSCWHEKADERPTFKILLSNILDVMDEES

SMILES	IC50 (ITK) [nM]	IC50 (BTK) [nM]
C=CC(=O)Nc1ccc(-c2cc(Cc3ccccc3)cc(Nc3cc(C)[nH]n3)n2)cc1 [Compound 1, N-(4-(4-benzyl-6-(5-methyl-1H-pyrazol-3-ylamino)pyridin-2-yl)phenyl)acrylamide]	289	> 1000
C=CC(=O)Nc1cccc(-c2cc(Cc3ccccc3)cc(Nc3cc(C)[nH]n3)n2)c1 [Compound 2, N-(3-(4-benzyl-6-(5-methyl-1H-pyrazol-3-ylamino)pyridin-2-yl)phenyl)acrylamide]	88.2	24.1
C#CC(=O)Nc1ccc(-c2cc(Cc3ccccc3)cc(Nc3cc(C)[nH]n3)n2)cc1 [Compound 3, N-(4-(4-benzyl-6-((5-methyl-1H-pyrazol-3-yl)amino)pyridin-2-yl)phenyl)propiolamide]	23.5	45.9
C=CC(=O)Nc1cccc(-c2cc(Cc3ccccc3)cc(Nc3cc(C4CCCC4)[nH]n3)n2)c1 [Compound 4, N-(3-(4-benzyl-6-(5-cyclopentyl-1H-pyrazol-3-ylamino)pyridin-2-yl)phenyl)acrylamide]	91.4	634
C=CC(=O)Nc1cccc(-c2cc(Cc3ccccc3)cc(Nc3cc(-c4ccccc4)[nH]n3)n2)c1 [Compound 5, N-(3-(4-benzyl-6-((5-phenyl-1H-pyrazol-3-yl)amino)pyridin-2-yl)phenyl)acrylamide]	317	777
C#CC(=O)Nc1cccc(-c2cc(Cc3ccccc3)cc(Nc3cc(C)[nH]n3)n2)c1 [Compound 6, N-(3-(4-benzyl-6-((5-methyl-1H-pyrazol-3-yl)amino)pyridin-2-yl)phenyl)propiolamide]	> 500	> 1000
C=CC(=O)Nc1cccc(-c2cc(Cc3ccccc3)cc(Nc3cc(-c4ccc(Oc5ccccc5)cc4)[nH]n3)n2)c1 [Compound 7, N-(3-(4-benzyl-6-((5-(4-phenoxyphenyl)-1H-pyrazol-3-yl)amino)pyridin-2-yl)phenyl)acrylamide]	> 500	123
C=CC(=O)Nc1cccc(-c2cc(Cc3ccccc3)cc(Nc3cc(Cc4ccc(C)cc4)[nH]n3)n2)c1 [Compound 8]	572	308
C=CC(=O)Nc1cccc(-c2cc(Cc3ccccc3)cc(Nc3cc(C(C)c4ccc(C)cc4)[nH]n3)n2)c1 (stereo not shown) [Compound 9]	> 1000	> 1000
C=CC(=O)Nc1cccc(-c2cc(Cc3ccccc3)cc(Nc3cc(CCc4ccccc4)[nH]n3)n2)c1 [Compound 10, N-(3-(4-benzyl-6-((5-phenethyl-1H-pyrazol-3-yl)amino)pyridin-2-yl)phenyl)acrylamide]	502	65.1
C=CC(=O)Nc1cccc(-c2cc(Cc3ccccc3)cc(Nc3cc[nH]n3)n2)c1 [Compound 11]	134	17.5
C=CC(=O)Nc1cccc(-c2cccc(Nc3cc(C)[nH]n3)n2)c1 [Compound 12]	995	7.8
C=CC(=O)Nc1cccc(-c2cccc(Nc3cc(C4CCCC4)[nH]n3)n2)c1 [Compound 13, N-(3-(6-((5-cyclopentyl-1H-pyrazol-3-yl)amino)pyridin-2-yl)phenyl)acrylamide]	266	138
C=CC(=O)Nc1cccc(-c2cccc(Nc3cc(-c4ccccc4)[nH]n3)n2)c1 [Compound 14, N-(3-(6-(5-phenyl-1H-pyrazol-3-ylamino)pyridin-2-yl)phenyl)acrylamide]	399	350
C=CC(=O)Nc1cccc(-c2cccc(Nc3cc[nH]n3)n2)c1 [Compound 15, N-(3-(6-(1H-pyrazol-3-ylamino)pyridin-2-yl)phenyl)acrylamide]	> 500	18
C=CC(=O)Nc1cccc(-c2cc(C)cc(Nc3cc(C)[nH]n3)n2)c1 [Compound 16, N-(3-(4-methyl-6-(5-methyl-1H-pyrazol-3-ylamino)pyridin-2-yl)phenyl)acrylamide]	192	6.1
C=CC(=O)Nc1cccc(-c2cc(C(F)(F)F)cc(Nc3cc(C)[nH]n3)n2)c1 [Compound 17]	131	11.1
C=CC(=O)Nc1cccc(-c2cc(C)cc(Nc3ccccn3)n2)c1 [Compound 18, N-(3-(4-methyl-6-(pyridin-2-ylamino)pyridin-2-yl)phenyl)acrylamide]	> 1000	28.7
C=CC(=O)Nc1cccc(-c2cc(CNC(C)C(C)(C)C)cc(Nc3cc(C)[nH]n3)n2)c1 (stereo not shown) [Compound 19]	> 500	74.7
C=CC(=O)Nc1cccc(-c2cc(C(=O)NC(C)C(C)(C)C)cc(Nc3cc(C)[nH]n3)n2)c1 (stereo not shown) [Compound 20, 2-(3-acrylamidophenyl)-N-(3,3-dimethylbutan-2-yl)-6-(5-methyl-1H-pyrazol-3-ylamino)isonicotinamide]	254	28.1
C=CC(=O)Nc1cccc(-c2cc(C(=O)N(C)C)cc(Nc3cc(C)[nH]n3)n2)c1 [Compound 21, 2-(3-acrylamidophenyl)-N,N-dimethyl-6-((5-methyl-1H-pyrazol-3-yl)amino)isonicotinamide]	> 500	52.6
C=CC(=O)Nc1cccc(-c2cc(CN3CCOCC3)cc(Nc3cc(C)[nH]n3)n2)c1 [Compound 22, N-(3-(6-((5-methyl-1H-pyrazol-3-yl)amino)-4-(morpholinomethyl)pyridin-2-yl)phenyl)acrylamide]	77.8	6.1
C=CC(=O)Nc1cccc(-c2cc(-c3ccccc3)cc(Nc3cc(C)[nH]n3)n2)c1 [Compound 23, N-(3-(6-(5-methyl-1H-pyrazol-3-ylamino)-4-phenylpyridin-2-yl)phenyl)acrylamide]	128	13.1
C=CC(=O)Nc1cccc(-c2cc(C)cc(Nc3cc(CC)[nH]n3)n2)c1 [Compound 24, N-(3-(6-(5-ethyl-1H-pyrazol-3-ylamino)-4-methylpyridin-2-yl)phenyl)acrylamide]	159	10.9
C=CC(=O)Nc1cccc(-c2cc(C)cc(Nc3cc(C4CC4)[nH]n3)n2)c1 [Compound 25, N-(3-(6-((5-cyclopropyl-1H-pyrazol-3-yl)amino)-4-methylpyridin-2-yl)phenyl)acrylamide]	59.3	8.6
C=CC(=O)Nc1cccc(-c2cc(C)cc(Nc3ncc(C)s3)n2)c1 [Compound 26, N-(3-(4-methyl-6-((5-methylthiazol-2-yl)amino)pyridin-2-yl)phenyl)acrylamide]	76.4	10.5
C=CC(=O)Nc1cccc(-c2cc(CN3CCOCC3)cc(Nc3cc(C4CC4)[nH]n3)n2)c1 [Compound 27, N-(3-(6-((5-cyclopropyl-1H-pyrazol-3-yl)amino)-4-(morpholinomethyl)pyridin-2-yl)phenyl)acrylamide]	36.9	68.7
C=CC(=O)Nc1cccc(-c2cc(CN3CCN(C(=O)C(C)C)CC3)cc(Nc3ncc(C)s3)n2)c1 [Compound 62, N (3(4((4-isobutyrylpiperazin-1-yl)methyl)-6-(5-methylthiazol-2-ylamino)pyridin-2-yl)phenyl)acrylamide]	8.1	–
